{
  "source": "patent US20220031740A1",
  "about": "“THERAPEUTIC USES OF ATOMIC QUANTUM CLUSTERS” (priority 2018, published 2022)",
  "key": {"E. Co/i": {"system": "E. Co/i", "assay": "E. coli survival with Ag5-AQC and DTT", "format": "cell-based", "settings": "DTT at 10 mM", "text": "The mechanism responsible is thought to be thiol oxidation. […] The opposite is also true, i.e. Ag5-AQCs rescue E. Co/i from DTT action as expected from to redox agents with opposed action."}, "[1]": {"system": "A549luc orthotopic lung tumour and mediastinal lymph node metastases", "assay": "A549luc orthotopic lung cancer model metastasizing to mediastinal lymph nodes", "format": "in vivo", "protocol": "(a) Ag5-AQCs cause a reduction in tumour growth in mice with orthotopic brain cancer. Experimental groups: Ag5-AQCs (0.25 mg/kg) and control (no treatment). (b-d) Ag5-AQCs treatment causes a reduction in tumour growth in mice with orthotopic lung cancer. (b) Tumour growth measured in vivo by luminescence (IVIS® Spectrum). Black arrows represent treatment administration times in the study. (c) Luciferase activity quantification measured ex vivo in lung and in mediastinal lymph nodes. (d) Immunohistochemical staining of lung tumour (arrows indicate the tumour nodules). Experimental groups: CDDP (4 mg/kg), Ag5-AQCs (0.25 mg/kg) and control (no treatment). (e) Body weight over the whole experiment. […]\nFor Ag5-AQCs treatment, mice were divided into three groups (5 animals in each): the first group (control) underwent no treatment, the second group was treated with cisplatin (CDDP) (four single doses, 4 mg/kg) and the third group was treated with Ag5-AQCs (four single doses, 0.25 mg/kg). […] The lung and mediastinal lymph nodes were removed and luminescence was quantified per microgram of protein in body as described in Borrajo et al. (2016). […]\nAnother limiting factor in cancer treatment is the occurrence of metastasis. […] In this model the occurrence of metastasis to lymph nodes is well established and could be detected 13 days after the injection of tumour cells. […]"}, "Nrf2": {"system": "Nrf2", "assay": "Nrf2 location by immunofluorescence in HEK293 cells", "format": "cell-based, human", "settings": "HEK293, 30 minutes; Ag5-AQC IC50, NEM 100 μM"}},
  "data": [
    {"smiles": "O[C@H](CS)[C@H](O)CS", "note": "(racemic) [DTT, Dithiothreitol]", "values": [
      {"measurement": "E. coli survival, DTT alone", "setting": "E. Co/i", "result": "toxic for bacteria"}
    ]},
    {"smiles": "[NH2][Pt]([NH2])([Cl])[Cl]", "note": "[CDDP, Cisplatin]", "values": [
      {"measurement": "luciferase activity in the primary tumour and in the mediastinal lymph nodes (ex vivo)", "setting": "[1]; day 37, vs control mice", "result": "significant reduction in luciferase activity"},
      {"measurement": "tumour size in lung (in vivo bioluminescence)", "setting": "[1]; intravenously days 20, 22, 24, 26, CDDP 4 mg/kg, Ag5-AQC 0.25 mg/kg, 37 days, vs control", "result": "significant reduction in tumour size"}
    ]},
    {"smiles": "CCN1C(=O)C=CC1=O", "note": "[NEM, N-ethylmaleimide]", "values": [
      {"measurement": "Nrf2 staining and nuclear location", "setting": "Nrf2", "result": "increased the nuclear accumulation of Nrf2"}
    ]}
  ]
}
